{"source": "paper PMC11873239", "about": "“A covalent chemical probe for Chikungunya nsP2 cysteine protease with antialphaviral activity and proteome-wide selectivity” (Scientific Reports, 2025)", "type_in_all_cases": "binding", "key": {"[1]": {"biological_target": "HEK293 cell lysate proteins and CHIKV nsP2 (Homo sapiens, UniProt Q86UP2)"}, "[2]": {"biological_target": "HEK293 cell lysate proteins and CHIKV nsP2 (Homo sapiens, UniProt O75223)"}, "[3]": {"test_system": "HEK293 cell lysate proteins and CHIKV nsP2", "conditions": "protein nsP2 (nsP2_AA993-AA1333_Tags)"}, "[4]": {"biological_target": "HEK293 cell lysate proteins and CHIKV nsP2 (Homo sapiens, UniProt Q96P63)"}, "[5]": {"biological_target": "HEK293 cell lysate proteins and CHIKV nsP2 (Homo sapiens, UniProt P05090)"}, "[6]": {"biological_target": "HEK293 cell lysate proteins and CHIKV nsP2 (Homo sapiens, UniProt P22735)"}, "[7]": {"biological_target": "HEK293 cell lysate proteins and CHIKV nsP2 (Homo sapiens, UniProt Q15424)"}, "[8]": {"biological_target": "HEK293 cell lysate proteins and CHIKV nsP2 (Homo sapiens, UniProt P31025)"}, "[9]": {"biological_target": "HEK293 cell lysate proteins and CHIKV nsP2 (Homo sapiens, UniProt Q14241)", "sequence (Q14241 whole entry)": "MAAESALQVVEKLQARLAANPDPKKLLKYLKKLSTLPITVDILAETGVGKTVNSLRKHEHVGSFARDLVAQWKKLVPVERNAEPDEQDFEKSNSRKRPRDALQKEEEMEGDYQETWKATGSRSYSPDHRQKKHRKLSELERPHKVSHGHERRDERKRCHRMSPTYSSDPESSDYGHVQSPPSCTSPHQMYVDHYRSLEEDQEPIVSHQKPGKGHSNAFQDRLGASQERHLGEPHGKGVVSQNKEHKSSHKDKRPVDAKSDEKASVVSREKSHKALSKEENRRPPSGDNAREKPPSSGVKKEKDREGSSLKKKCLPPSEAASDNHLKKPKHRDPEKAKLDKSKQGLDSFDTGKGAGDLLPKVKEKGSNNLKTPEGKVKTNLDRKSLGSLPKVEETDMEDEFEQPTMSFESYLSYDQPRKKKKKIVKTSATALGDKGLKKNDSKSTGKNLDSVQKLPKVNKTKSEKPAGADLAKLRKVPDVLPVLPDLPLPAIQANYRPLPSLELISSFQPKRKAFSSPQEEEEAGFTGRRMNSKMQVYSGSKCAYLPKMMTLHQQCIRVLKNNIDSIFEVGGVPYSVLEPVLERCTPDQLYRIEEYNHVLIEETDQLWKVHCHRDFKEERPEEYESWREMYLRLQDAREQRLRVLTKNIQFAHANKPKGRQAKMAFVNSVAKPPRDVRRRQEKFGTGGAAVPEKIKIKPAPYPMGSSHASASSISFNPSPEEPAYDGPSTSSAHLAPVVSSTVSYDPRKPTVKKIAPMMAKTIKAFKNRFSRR"}, "[10]": {"biological_target": "HEK293 cell lysate proteins and CHIKV nsP2 (Homo sapiens, UniProt Q9UKV3)"}, "[11]": {"biological_target": "HEK293 cell lysate proteins and CHIKV nsP2 (Homo sapiens, UniProt Q5JTH9)"}, "[12]": {"biological_target": "HEK293 cell lysate proteins and CHIKV nsP2 (Homo sapiens, UniProt P27708)"}, "[13]": {"biological_target": "HEK293 cell lysate proteins and CHIKV nsP2 (Homo sapiens, UniProt O14617)"}, "[14]": {"biological_target": "HEK293 cell lysate proteins and CHIKV nsP2 (Homo sapiens, UniProt P32119)"}, "[15]": {"biological_target": "HEK293 cell lysate proteins and CHIKV nsP2 (Homo sapiens, UniProt Q00610)", "sequence (Q00610 whole entry)": "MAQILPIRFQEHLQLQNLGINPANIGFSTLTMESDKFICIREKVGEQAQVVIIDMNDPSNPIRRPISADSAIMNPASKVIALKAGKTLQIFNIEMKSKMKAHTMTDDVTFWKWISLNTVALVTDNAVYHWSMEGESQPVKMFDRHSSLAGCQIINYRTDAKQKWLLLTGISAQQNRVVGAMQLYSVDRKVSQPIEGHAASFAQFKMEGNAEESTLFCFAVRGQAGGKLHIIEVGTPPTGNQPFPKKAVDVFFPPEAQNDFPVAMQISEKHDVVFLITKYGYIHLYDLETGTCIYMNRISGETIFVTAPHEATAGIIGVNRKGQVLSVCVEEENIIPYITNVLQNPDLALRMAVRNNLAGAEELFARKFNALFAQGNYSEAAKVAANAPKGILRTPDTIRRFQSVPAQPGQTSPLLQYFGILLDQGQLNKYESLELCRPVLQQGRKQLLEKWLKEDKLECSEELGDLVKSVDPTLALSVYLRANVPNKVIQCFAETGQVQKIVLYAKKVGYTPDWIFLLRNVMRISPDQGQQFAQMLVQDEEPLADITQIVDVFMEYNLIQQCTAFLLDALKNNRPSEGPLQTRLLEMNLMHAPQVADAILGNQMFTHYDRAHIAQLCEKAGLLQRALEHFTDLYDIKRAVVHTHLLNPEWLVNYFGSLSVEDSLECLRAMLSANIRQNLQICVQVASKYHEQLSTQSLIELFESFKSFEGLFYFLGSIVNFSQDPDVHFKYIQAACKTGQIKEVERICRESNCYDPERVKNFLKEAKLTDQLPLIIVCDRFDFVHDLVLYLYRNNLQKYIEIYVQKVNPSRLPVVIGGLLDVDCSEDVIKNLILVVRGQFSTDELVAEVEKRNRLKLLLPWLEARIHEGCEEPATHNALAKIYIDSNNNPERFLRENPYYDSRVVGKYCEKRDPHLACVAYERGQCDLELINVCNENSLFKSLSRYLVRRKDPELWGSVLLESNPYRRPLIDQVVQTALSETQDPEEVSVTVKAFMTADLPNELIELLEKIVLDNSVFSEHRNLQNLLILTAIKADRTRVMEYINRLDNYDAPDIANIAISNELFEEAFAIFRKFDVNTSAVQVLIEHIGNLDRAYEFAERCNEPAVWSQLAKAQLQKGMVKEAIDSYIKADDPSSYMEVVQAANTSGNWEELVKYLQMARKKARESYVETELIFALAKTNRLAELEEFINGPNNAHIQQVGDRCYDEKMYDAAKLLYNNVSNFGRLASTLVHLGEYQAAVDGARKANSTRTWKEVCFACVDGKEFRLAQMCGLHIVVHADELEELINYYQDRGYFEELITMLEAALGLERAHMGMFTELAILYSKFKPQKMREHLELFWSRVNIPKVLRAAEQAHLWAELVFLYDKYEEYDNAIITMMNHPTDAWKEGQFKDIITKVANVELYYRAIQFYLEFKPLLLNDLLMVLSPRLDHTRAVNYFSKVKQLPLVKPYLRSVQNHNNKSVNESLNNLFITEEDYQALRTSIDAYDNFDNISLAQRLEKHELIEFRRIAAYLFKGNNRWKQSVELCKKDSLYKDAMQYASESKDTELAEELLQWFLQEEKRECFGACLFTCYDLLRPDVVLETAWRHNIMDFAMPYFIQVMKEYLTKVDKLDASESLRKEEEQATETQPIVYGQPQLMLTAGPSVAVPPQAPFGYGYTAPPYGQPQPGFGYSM"}, "[16]": {"biological_target": "HEK293 cell lysate proteins and CHIKV nsP2 (Homo sapiens, UniProt P31151)"}, "[17]": {"biological_target": "HEK293 cell lysate proteins and CHIKV nsP2 (Homo sapiens, UniProt P60709)"}, "[18]": {"biological_target": "HEK293 cell lysate proteins and CHIKV nsP2 (Homo sapiens, UniProt P25311)"}, "[19]": {"biological_target": "HEK293 cell lysate proteins and CHIKV nsP2 (Homo sapiens, UniProt Q12872)"}, "[20]": {"biological_target": "HEK293 cell lysate proteins and CHIKV nsP2 (Homo sapiens, UniProt P81605)", "sequence (P81605 20-110)": "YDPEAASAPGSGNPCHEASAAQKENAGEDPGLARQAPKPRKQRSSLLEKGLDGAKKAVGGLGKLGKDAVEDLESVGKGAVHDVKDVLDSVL"}, "[21]": {"biological_target": "HEK293 cell lysate proteins and CHIKV nsP2 (Homo sapiens, UniProt P42357)"}, "[22]": {"biological_target": "HEK293 cell lysate proteins and CHIKV nsP2 (Homo sapiens, UniProt P68104)"}, "[23]": {"biological_target": "HEK293 cell lysate proteins and CHIKV nsP2 (Homo sapiens, UniProt P08621)"}, "[24]": {"biological_target": "HEK293 cell lysate proteins and CHIKV nsP2 (Homo sapiens, UniProt P06733)"}, "[25]": {"biological_target": "HEK293 cell lysate proteins and CHIKV nsP2 (Homo sapiens, UniProt P07355)"}, "[26]": {"biological_target": "HEK293 cell lysate proteins and CHIKV nsP2 (Homo sapiens, UniProt P07339)"}, "[27]": {"biological_target": "HEK293 cell lysate proteins and CHIKV nsP2 (Homo sapiens, UniProt Q14151)"}, "[28]": {"biological_target": "HEK293 cell lysate proteins and CHIKV nsP2 (Homo sapiens, UniProt P62979)"}, "[29]": {"biological_target": "HEK293 cell lysate proteins and CHIKV nsP2 (Homo sapiens, UniProt Q9BQG0)"}, "[30]": {"biological_target": "HEK293 cell lysate proteins and CHIKV nsP2 (Homo sapiens, UniProt P05109)"}, "[31]": {"biological_target": "HEK293 cell lysate proteins and CHIKV nsP2 (Homo sapiens, UniProt O60524)", "sequence (O60524 whole entry)": "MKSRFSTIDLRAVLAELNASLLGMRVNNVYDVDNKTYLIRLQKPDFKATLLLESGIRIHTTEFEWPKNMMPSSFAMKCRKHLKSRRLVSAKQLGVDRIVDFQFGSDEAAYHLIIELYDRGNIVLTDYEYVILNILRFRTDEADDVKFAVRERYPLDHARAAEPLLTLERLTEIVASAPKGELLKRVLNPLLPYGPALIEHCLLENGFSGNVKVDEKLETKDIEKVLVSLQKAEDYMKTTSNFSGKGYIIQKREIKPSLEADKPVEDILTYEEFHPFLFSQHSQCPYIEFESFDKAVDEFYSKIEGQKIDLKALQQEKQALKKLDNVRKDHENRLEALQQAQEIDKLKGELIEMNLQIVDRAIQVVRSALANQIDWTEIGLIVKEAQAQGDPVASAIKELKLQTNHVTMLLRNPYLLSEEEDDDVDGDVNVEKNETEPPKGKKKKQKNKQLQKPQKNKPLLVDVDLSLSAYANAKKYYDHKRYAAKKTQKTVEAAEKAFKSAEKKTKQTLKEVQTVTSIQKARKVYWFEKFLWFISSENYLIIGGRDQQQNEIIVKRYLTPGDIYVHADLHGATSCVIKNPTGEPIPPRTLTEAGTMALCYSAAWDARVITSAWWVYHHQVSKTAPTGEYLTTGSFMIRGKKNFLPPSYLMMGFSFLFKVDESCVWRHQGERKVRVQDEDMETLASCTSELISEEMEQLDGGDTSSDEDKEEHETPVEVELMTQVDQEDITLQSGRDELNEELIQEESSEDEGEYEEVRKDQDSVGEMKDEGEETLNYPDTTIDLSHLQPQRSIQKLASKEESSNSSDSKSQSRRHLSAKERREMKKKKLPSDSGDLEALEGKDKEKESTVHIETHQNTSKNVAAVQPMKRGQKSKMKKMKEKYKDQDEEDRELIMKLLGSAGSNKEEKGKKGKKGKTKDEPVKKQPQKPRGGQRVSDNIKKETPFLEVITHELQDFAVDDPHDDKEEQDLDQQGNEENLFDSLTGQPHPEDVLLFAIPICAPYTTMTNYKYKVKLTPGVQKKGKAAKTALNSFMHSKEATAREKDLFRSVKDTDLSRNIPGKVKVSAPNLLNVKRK"}, "[32]": {"biological_target": "HEK293 cell lysate proteins and CHIKV nsP2 (Homo sapiens, UniProt Q96QA5)", "sequence (Q96QA5 whole entry)": "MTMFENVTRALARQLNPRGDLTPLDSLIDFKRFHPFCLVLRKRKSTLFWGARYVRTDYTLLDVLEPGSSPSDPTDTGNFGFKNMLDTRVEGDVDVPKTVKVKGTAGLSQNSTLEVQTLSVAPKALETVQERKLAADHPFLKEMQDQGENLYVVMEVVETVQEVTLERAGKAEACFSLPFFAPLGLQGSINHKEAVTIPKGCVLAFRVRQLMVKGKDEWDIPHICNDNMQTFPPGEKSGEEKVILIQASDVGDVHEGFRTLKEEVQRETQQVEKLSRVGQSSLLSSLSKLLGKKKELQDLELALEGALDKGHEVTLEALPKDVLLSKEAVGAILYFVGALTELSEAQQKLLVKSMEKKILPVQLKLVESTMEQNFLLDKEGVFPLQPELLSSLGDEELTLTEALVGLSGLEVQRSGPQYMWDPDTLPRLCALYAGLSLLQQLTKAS"}, "[33]": {"biological_target": "HEK293 cell lysate proteins and CHIKV nsP2 (Homo sapiens, UniProt Q8TEQ6)"}, "[34]": {"biological_target": "HEK293 cell lysate proteins and CHIKV nsP2 (Homo sapiens, UniProt Q02413)", "sequence (Q02413 50-1049)": "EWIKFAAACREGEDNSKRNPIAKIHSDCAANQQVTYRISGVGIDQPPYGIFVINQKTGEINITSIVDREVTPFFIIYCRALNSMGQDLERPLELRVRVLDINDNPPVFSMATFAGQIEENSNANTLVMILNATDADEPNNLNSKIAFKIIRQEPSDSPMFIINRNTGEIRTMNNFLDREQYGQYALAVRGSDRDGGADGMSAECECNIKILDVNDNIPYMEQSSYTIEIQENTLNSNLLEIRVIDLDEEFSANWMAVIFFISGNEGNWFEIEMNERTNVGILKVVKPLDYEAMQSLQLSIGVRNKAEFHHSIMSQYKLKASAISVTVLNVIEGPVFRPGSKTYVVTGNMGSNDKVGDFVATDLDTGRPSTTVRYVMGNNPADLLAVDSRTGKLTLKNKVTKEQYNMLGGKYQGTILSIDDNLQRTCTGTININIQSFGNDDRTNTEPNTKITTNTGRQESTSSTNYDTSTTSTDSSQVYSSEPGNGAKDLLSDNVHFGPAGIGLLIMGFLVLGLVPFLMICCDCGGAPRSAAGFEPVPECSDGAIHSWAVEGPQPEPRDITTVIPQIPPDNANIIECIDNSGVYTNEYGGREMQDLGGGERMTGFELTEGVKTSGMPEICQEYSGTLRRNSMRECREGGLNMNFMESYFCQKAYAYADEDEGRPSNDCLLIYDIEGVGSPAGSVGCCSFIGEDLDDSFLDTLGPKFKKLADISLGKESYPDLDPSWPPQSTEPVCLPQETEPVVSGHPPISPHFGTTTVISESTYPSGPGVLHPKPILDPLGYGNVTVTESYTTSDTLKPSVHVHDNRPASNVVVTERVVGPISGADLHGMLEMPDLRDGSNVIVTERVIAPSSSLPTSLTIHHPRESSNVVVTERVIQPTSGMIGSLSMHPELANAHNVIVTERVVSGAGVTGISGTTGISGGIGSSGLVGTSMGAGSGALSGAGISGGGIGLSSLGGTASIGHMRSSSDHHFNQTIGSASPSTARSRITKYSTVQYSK"}, "[35]": {"biological_target": "HEK293 cell lysate proteins and CHIKV nsP2 (Homo sapiens, UniProt P04040)"}, "[36]": {"biological_target": "HEK293 cell lysate proteins and CHIKV nsP2 (Homo sapiens, UniProt P04259)"}}, "note": "Read-outs that look alike come from different tables or passages of the source."}
{"smiles": "C#CCOc1ccccc1-c1cc(C(=O)NC/C=C/S(C)(=O)=O)on1", "note": "[VS, (E)-N-(3-(methylsulfonyl)allyl)−3-(2-(prop-2-yn-1-yloxy)phenyl)isoxazole-5-carboxamide]", "values": [{"measurement": "Log2 fold change", "setting": "[1]", "value": 0.34}, {"measurement": "Log2 fold change", "setting": "[2]", "value": 0.96}, {"measurement": "Log2 fold change", "setting": "[3]", "value": 1.03}, {"measurement": "Log2 fold change", "setting": "[3]; sheet nsP2 spike", "value": 7.13}, {"measurement": "Log2 fold change", "setting": "[4]", "value": 1.71}, {"measurement": "Log2 fold change", "setting": "[5]", "value": 6.55}, {"measurement": "Log2 fold change", "setting": "[6]", "value": 1.60}, {"measurement": "Log2 fold change", "setting": "[7]", "value": 1.46}, {"measurement": "Log2 fold change", "setting": "[8]", "value": 1.54}, {"measurement": "Log2 fold change", "setting": "[9]", "value": -1.01}, {"measurement": "Log2 fold change", "setting": "[10]", "value": -1.88}, {"measurement": "Log2 fold change", "setting": "[11]", "value": -0.0263}, {"measurement": "Log2 fold change", "setting": "[12]", "value": 3.37}, {"measurement": "Log2 fold change", "setting": "[13]", "value": -0.93}, {"measurement": "Log2 fold change", "setting": "[14]", "value": 2.04}, {"measurement": "Log2 fold change", "setting": "[15]", "value": 3.09}, {"measurement": "Log2 fold change", "setting": "[16]", "value": -1.22}, {"measurement": "Log2 fold change", "setting": "[17]", "value": 1.54}, {"measurement": "Log2 fold change", "setting": "[18]", "value": 1.43}, {"measurement": "Log2 fold change", "setting": "[19]", "value": -1.75}, {"measurement": "Log2 fold change", "setting": "[20]", "value": 1.36}, {"measurement": "Log2 fold change", "setting": "[21]", "value": 1.12}, {"measurement": "Log2 fold change", "setting": "[22]", "value": 0.56}, {"measurement": "Log2 fold change", "setting": "[23]", "value": 3.47}, {"measurement": "Log2 fold change", "setting": "[24]", "value": 1.36}, {"measurement": "Log2 fold change", "setting": "[25]", "value": 1.52}, {"measurement": "Log2 fold change", "setting": "[26]", "value": 1.67}, {"measurement": "Log2 fold change", "setting": "[27]", "value": 1.50}, {"measurement": "Log2 fold change", "setting": "[28]", "value": 0.71}, {"measurement": "Log2 fold change", "setting": "[29]", "value": -0.66}, {"measurement": "Log2 fold change", "setting": "[30]", "value": 1.58}, {"measurement": "Log2 fold change", "setting": "[31]", "value": -0.75}, {"measurement": "Log2 fold change", "setting": "[32]", "value": 1.51}, {"measurement": "Log2 fold change", "setting": "[33]", "value": -0.32}, {"measurement": "Log2 fold change", "setting": "[34]", "value": 1.36}, {"measurement": "Log2 fold change", "setting": "[35]", "value": 1.41}, {"measurement": "Log2 fold change", "setting": "[36]", "value": 3.24}]}
